Data from the supplement of paper PMC13380429.

How the values were obtained:
Vero E6 [1] = test: drug sensitivity score (DSS) for viability; higher = more toxic; extreme values may be limits of the assay; settings: 72 h
U2OS [2] = test: as above; settings: 72 h
HepG2 [3] = test: as above; settings: 72 h
Calu-3 [4] = test: as above; settings: 72 h
Caco-2 [5] = test: as above; settings: 72 h
Vero E6 [6] = test: relative viability EC50 (midpoint between 100% and the lowest measured viability); higher = less toxic; settings: 72 h
U2OS [7] = test: as above; settings: 72 h
HepG2 [8] = test: as above; settings: 72 h
Calu-3 [9] = test: as above; settings: 72 h
Caco-2 [10] = test: as above; settings: 72 h
Vero E6 [11] = test: cell viability relative to DMSO; higher = less toxic; settings: 72 h
U2OS [12] = test: as above; settings: 72 h
HepG2 [13] = test: as above; settings: 72 h
Calu-3 [14] = test: as above; settings: 72 h
Caco-2 [15] = test: as above; settings: 72 h
[16] = system: A549-ACE2 infected with SARS-CoV-2; test: cell count relative to DMSO; higher = less toxic; settings: 24 h
[17] = system: A549-ACE2 infected with SARS-CoV-2; test: morphology score (similarity to uninfected cells); higher = more like uninfected cells; settings: 24 h
[18] = system: A549-ACE2 infected with SARS-CoV-2; test: SARS-CoV-2 infection rate relative to DMSO; higher = more infection; settings: 24 h
A549-ACE2 = test: drug-induced phospholipidosis relative to tamoxifen; higher = more phospholipidosis

CC(=O)N[C@@H](CS)C(=O)O [acetylcysteine]
Settings | drug sensitivity score | relative viability EC50 [µM]
Caco-2 [5] | 0 | –
Caco-2 [10] | – | > 10
Calu-3 [4] | 0 | –
Calu-3 [9] | – | > 10
HepG2 [3] | 0 | –
HepG2 [8] | – | > 10
U2OS [2] | 0 | –
U2OS [7] | – | > 10
Vero E6 [1] | 0 | –
Vero E6 [6] | – | > 10

cell viability [%]
Settings | Caco-2 [15] | Calu-3 [14] | HepG2 [13] | U2OS [12] | Vero E6 [11]
1 nM | 105 | 101 | 99.2 | 99.1 | 104
10 nM | 87.1 | 101 | 103 | 97.2 | 106
100 nM | 98.1 | 93 | 94.9 | 100 | 102
1000 nM | 101 | 96.2 | 103 | 95.5 | 103
10000 nM | 100 | 104 | 104 | 102 | 97.8

CN1C(=O)C(F)=C[C@]2(C)[C@H]3CC[C@]4(C)[C@@H](C(=O)NCc5nc6cccnc6[nH]5)CC[C@H]4[C@@H]3CC[C@@H]12 [MK-0773]
Settings | drug sensitivity score | relative viability EC50 [µM]
Caco-2 [5] | 1.8 | –
Caco-2 [10] | – | > 10
Calu-3 [4] | 0 | –
Calu-3 [9] | – | > 10
HepG2 [3] | 0.9 | –
HepG2 [8] | – | > 10
U2OS [2] | 0 | –
U2OS [7] | – | > 10
Vero E6 [1] | 0 | –
Vero E6 [6] | – | > 10

cell viability [%]
Settings | Caco-2 [15] | Calu-3 [14] | HepG2 [13] | U2OS [12] | Vero E6 [11]
1 nM | 102 | 103 | 91.1 | 99 | 99.2
10 nM | 92.4 | 103 | 108 | 99.4 | 102
100 nM | 100 | 101 | 93 | 98.8 | 96.2
1000 nM | 83.3 | 97.7 | 91.4 | 95.4 | 104
10000 nM | 87.7 | 100 | 87.9 | 95.9 | 104

CCCCNc1c(C(=O)OCC)c(C)nc2c1cnn2CC [tracazolate]
Settings | drug sensitivity score | relative viability EC50 [µM]
Caco-2 [5] | 0 | –
Caco-2 [10] | – | > 10
Calu-3 [4] | 0.1 | –
Calu-3 [9] | – | > 10
HepG2 [3] | 0 | –
HepG2 [8] | – | > 10
U2OS [2] | 0 | –
U2OS [7] | – | > 10
Vero E6 [1] | 0 | –
Vero E6 [6] | – | > 10

cell viability [%]
Settings | Caco-2 [15] | Calu-3 [14] | HepG2 [13] | U2OS [12] | Vero E6 [11]
1 nM | 93.3 | 101 | 97.6 | 101 | 93
10 nM | 96.1 | 85.1 | 104 | 93.2 | 97.7
100 nM | 97.2 | 98.6 | 92.5 | 102 | 96.9
1000 nM | 92.7 | 102 | 106 | 97.7 | 96.7
10000 nM | 101 | 86.4 | 99.3 | 93.6 | 96.5

CCOc1cc(/C=C2/C(=O)N(c3ccccc3)N=C2C)cc(Cl)c1OCC(=O)OC
Settings | drug sensitivity score | relative viability EC50 [µM]
Caco-2 [5] | 0 | –
Caco-2 [10] | – | > 10
Calu-3 [4] | 0 | –
Calu-3 [9] | – | > 10
HepG2 [3] | 0 | –
HepG2 [8] | – | > 10
U2OS [2] | 0 | –
U2OS [7] | – | > 10
Vero E6 [1] | 0 | –
Vero E6 [6] | – | > 10

cell viability [%]
Settings | Caco-2 [15] | Calu-3 [14] | HepG2 [13] | U2OS [12] | Vero E6 [11]
1 nM | 102 | 92.9 | 96.5 | 102 | 104
10 nM | 108 | 95.9 | 101 | 100 | 106
100 nM | 92.4 | 105 | 96.1 | 98.2 | 103
1000 nM | 92.9 | 94.8 | 98.3 | 96.2 | 102
10000 nM | 97.4 | 108 | 91.6 | 99.4 | 97.7

CC1(C)CC[C@]2(C(=O)O)CC[C@]3(C)[C@H](C(=O)C=C4[C@@]5(C)C=C(C#N)C(=O)C(C)(C)[C@@H]5CC[C@]43C)[C@@H]2C1 [bardoxolone]
Settings | drug sensitivity score | relative viability EC50 [µM]
Caco-2 [5] | 5.3 | –
Caco-2 [10] | – | > 10
Calu-3 [4] | 5.9 | –
Calu-3 [9] | – | 2.44
HepG2 [3] | 9.5 | –
HepG2 [8] | – | 1.28
U2OS [2] | 8.9 | –
U2OS [7] | – | 1.37
Vero E6 [1] | 4.2 | –
Vero E6 [6] | – | 3.43

Settings | SARS-CoV-2 infection rate, [18] [%] | cell count, [16] [%] | cell viability, Caco-2 [15] [%] | cell viability, Calu-3 [14] [%] | cell viability, HepG2 [13] [%] | cell viability, U2OS [12] [%] | cell viability, Vero E6 [11] [%] | morphology score, [17]
1 nM | – | – | 91.3 | 102 | 98.2 | 101 | 101 | –
10 nM | – | – | 107 | 104 | 92.1 | 104 | 102 | –
0.1 µM | 97 | 101 | – | – | – | – | – | 0.07
100 nM | – | – | 78.1 | 102 | 89.7 | 102 | 111 | –
0.3 µM | 99 | 91 | – | – | – | – | – | -0.05
1 µM | 99 | 89 | – | – | – | – | – | -0.09
1000 nM | – | – | 83.8 | 92.5 | 62.8 | 72.3 | 104 | –
3 µM | 115 | 94 | – | – | – | – | – | -0.26
10000 nM | – | – | 82.9 | 15.5 | 5.4 | 12 | 18.3 | –

drug-induced phospholipidosis [%], A549-ACE2
Settings | 0.3 µM | 0.833333 µM | 3.33333 µM | 6.66667 µM | 10 µM
24 h | -1.07 | -5.8 | 7.86 | 18.2 | -6.56
48 h | -3.77 | -7.72 | 1.1 | – | –
72 h | -2.71 | -7.17 | – | – | –
